Laboratory results: article doi:10.1101/2025.09.24.678246 (bioRxiv, 2025)
≈ marks a conversion by molar mass, not a printed value. Where “and” joins values, the source holds several entries; their conditions need not be identical. Identical values can stand only once. Like-named read-outs stand apart in the source and are kept apart here.

Experiments:
Mtb = test: Membrane fluidity measurements (laurdan GP); assay type: cell-based, Mycobacterium tuberculosis; details: 150 nM
BioA [1] = molecular target: T1, BioA (Mycobacterium tuberculosis, UniProt P9WQ81); test: BioA Ki determination (tight binding, Morrison equation, 5 nM BioA); assay type: biochemical
T1 sequence (P9WQ81 whole entry, looked up): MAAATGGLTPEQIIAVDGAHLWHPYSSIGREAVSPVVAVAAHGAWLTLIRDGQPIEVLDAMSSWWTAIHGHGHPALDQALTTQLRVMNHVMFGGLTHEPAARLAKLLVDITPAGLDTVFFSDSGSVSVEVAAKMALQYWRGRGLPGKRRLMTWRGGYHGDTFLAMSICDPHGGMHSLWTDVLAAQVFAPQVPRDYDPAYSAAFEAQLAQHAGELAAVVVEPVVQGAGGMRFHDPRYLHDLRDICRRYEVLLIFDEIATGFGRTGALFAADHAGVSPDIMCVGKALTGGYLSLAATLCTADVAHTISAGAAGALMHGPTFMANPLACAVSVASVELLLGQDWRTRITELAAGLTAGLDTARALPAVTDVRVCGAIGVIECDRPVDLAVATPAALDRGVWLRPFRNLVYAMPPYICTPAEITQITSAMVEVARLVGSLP

A. baumannii ATCC 17978 = test: MIC screening against Gram-negative pathogens: A. baumannii
Experimental: (§1) MIC measurements were based on a method previously described[6]. Overnight liquid cultures of E. coli BW, E. coli C0244, A. baumannii ATCC 17978, K. pneumoniae ATCC 43816, P. aeruginosa PA01 and E. faecium ATCC 19434 strains were inoculated with a single colony from a freshly streaked agar plate of the corresponding bacterial strain and cultured in M9 minimal medium supplemented with amino acids[6]. The bacterial culture was prepared by washing 1 mL of overnight culture in PBS pH 7.4 (x3), then diluted to OD600 = 0.5 and used to inoculate 1:1000 in M9 minimal medium with amino acids in 96-well plates. Compounds were added to 96-well plates in two-fold serial dilutions. The plates were incubated stationary at 37 °C for 18 h, then OD600 was measured. […] The assay was performed in duplicate.

Mtb H37Rv = test: microbe, parasite or virus in culture; assay type: cell-based, Mycobacterium tuberculosis; details: Mycobacterium tuberculosis, H37RV; biotin-free medium
in vivo = details: female, CD-1, mouse
M. abscessus = test: MIC screening against M. abscessus (NTM); assay type: cell-based; details: Mycobacteroides abscessus
E. faecium ATCC 19434 = test: MIC screening: E. faecium
Experimental: as §1

HT-29 = details: 48 h; for Growth compared to DMSO control (%): HT-29 cell
S. aureus = test: MIC screening: S. aureus; assay type: cell-based
Source text: Supplement media-1.docx, table 4: Supplemental Table S4. MIC screening of C48 against a panel of pathogens and strains | column: C48 MIC (µM)^b

[2] = p.o. 25 mg/kg, CD-1 mice
E. coli = test: MIC screening against Gram-negative pathogens: E. coli
Experimental: as §1

M. bovis 0AF2122 = test: microbe, parasite or virus in culture; assay type: cell-based; details: Mycobacterium tuberculosis variant bovis
WT H37Rv = test: Time-kill kinetics in GAST medium; assay type: cell-based, Mycobacterium tuberculosis; details: for OD580 of C48 kill kinetics: 10µM C48, GAST medium
M. africanum = test: MIC screening against M. africanum; assay type: cell-based; details: Mycobacterium tuberculosis, MTBC
HepG2 = details: for Growth compared to DMSO control (%): HepG2 cell
BioA [3] = molecular target: T1, BioA; test: BioA inhibition assay (coupled BioA/BioD fluorescence displacement, IC50); assay type: biochemical
[4] = tested on: ESKAPE panel of pathogens; test: MIC screening against the ESKAPE panel (summary)
Experimental: as §1

## O=C1CCc2cc(N3CCN(C(=O)c4ccc(F)c(Br)c4)CC3)ncc21 [C48]
Mtb; +Biotin
  Laurdan GP: 0.2273 and 0.2244 and 0.2183
Mtb; -Biotin
  Laurdan GP: 0.2797 and 0.2817 and 0.2774
Mtb; without biotin
  laurdan GP change: increase
BioA [1]; 5 nM BioA, Morrison analysis, read-out: BioA inhibition constant (Ki)
  Ki: 0.2 nM
BioA [1]; Fig. 2A, [Inhibitor C48] 0.520246 nM, read-out: Fractional Vilocity (Vi/Vo %)
  remaining activity at 0.000520246 µM: 104%
BioA [1]; Fig. 2A, [Inhibitor C48] 0.780369 nM, read-out: Fractional Vilocity (Vi/Vo %)
  remaining activity at 0.000780369 µM: 90.9%
BioA [1]; Fig. 2A, [Inhibitor C48] 1.17055 nM, read-out: Fractional Vilocity (Vi/Vo %)
  remaining activity at 0.00117055 µM: 87.2%
BioA [1]; Fig. 2A, [Inhibitor C48] 1.75583 nM, read-out: Fractional Vilocity (Vi/Vo %)
  remaining activity at 0.00175583 µM: 81%
BioA [1]; Fig. 2A, [Inhibitor C48] 2.63374 nM, read-out: Fractional Vilocity (Vi/Vo %)
  remaining activity at 0.00263374 µM: 71.8%
BioA [1]; Fig. 2A, [Inhibitor C48] 3.95062 nM, read-out: Fractional Vilocity (Vi/Vo %)
  remaining activity at 0.00395062 µM: 58.3%
BioA [1]; Fig. 2A, [Inhibitor C48] 5.92593 nM, read-out: Fractional Vilocity (Vi/Vo %)
  remaining activity at 0.00592593 µM: 37.4%
BioA [1]; Fig. 2A, [Inhibitor C48] 7.4 nM, read-out: Fractional Vilocity (Vi/Vo %)
  remaining activity at 0.0074 µM: 29.2%
BioA [1]; Fig. 2A, [Inhibitor C48] 8.88889 nM, read-out: Fractional Vilocity (Vi/Vo %)
  remaining activity at 0.00888889 µM: 20.9%
BioA [1]; Fig. 2A, [Inhibitor C48] 13.3333 nM, read-out: Fractional Vilocity (Vi/Vo %)
  remaining activity at 0.0133333 µM: 9.57%
BioA [1]; Fig. 2A, [Inhibitor C48] 20 nM, read-out: Fractional Vilocity (Vi/Vo %)
  remaining activity at 0.02 µM: 4.24%
BioA [1]; Fig. 2A, [Inhibitor C48] 30 nM, read-out: Fractional Vilocity (Vi/Vo %)
  remaining activity at 0.03 µM: 1.42%
BioA [1]; read-out: Fractional Vilocity (Vi/Vo %)
  remaining activity at […]: 13.1%
A. baumannii ATCC 17978
  MIC: inactive
Mtb H37Rv
  MIC50: 0.093 µM (≈ 0.0389 µg/mL)
In vivo
  half-life: 54.6 min
In vivo; iv
  Vd: 0.26 L/kg
  clearance: 3.2 mL/min/kg
  half-life: 54.6 min
In vivo; po, 25 mg/kg
  AUC(0-inf): 146 µg·h/mL
  bioavailability: > 100%
M. abscessus; ATCC19977, read-out: MIC (50% growth inhibition), M. abscessus (ATCC19977), reference strain
  MIC: 0.5 µM (≈ 0.209 µg/mL)
M. abscessus; M. abscessus, NTM, footnote mark d, read-out: MIC
  MIC: 0.5 to 1 µM (≈ 0.209 to 0.418 µg/mL)
M. abscessus; read-out: MIC (50% growth inhibition), M. abscessus BWH-B, clinical strain
  MIC: 0.5 µM (≈ 0.209 µg/mL)
M. abscessus; read-out: MIC (50% growth inhibition), M. abscessus BWH-D, clinical strain
  MIC: 0.5 µM (≈ 0.209 µg/mL)
M. abscessus; read-out: MIC (50% growth inhibition), M. abscessus T35, clinical strain
  MIC: 0.5 µM (≈ 0.209 µg/mL)
M. abscessus; read-out: MIC (50% growth inhibition), M. abscessus T37, clinical strain
  MIC: 1 µM (≈ 0.418 µg/mL)
M. abscessus; read-out: MIC (50% growth inhibition), M. abscessus T38, clinical strain
  MIC: 1 µM (≈ 0.418 µg/mL)
M. abscessus; read-out: MIC (50% growth inhibition), M. abscessus T49, clinical strain
  MIC: 0.5 µM (≈ 0.209 µg/mL)
M. abscessus; read-out: MICs against nontuberculous mycobacteria (NTM)
  MIC: 0.5 to 1 µM (≈ 0.209 to 0.418 µg/mL)
E. faecium ATCC 19434
  MIC: inactive
HT-29; 3.13 μM
  Growth compared to DMSO control (%): 103.339% and 102.14% and 102.153%
HT-29; 6.25 μM
  Growth compared to DMSO control (%): 105.34% and 100.609% and 100.571%
HT-29; 12.5 μM
  Growth compared to DMSO control (%): 103.832% and 99.2439% and 99.2304%
HT-29; 25 μM
  Growth compared to DMSO control (%): 102.371% and 98.4085% and 97.2044%
HT-29; 50 μM
  Growth compared to DMSO control (%): 101.665% and 97.1295% and 96.4305%
HT-29; 100 μM
  Growth compared to DMSO control (%): 100.396% and 97.8669% and 97.7498%
HT-29; concentrations up to 100 μM
  cytotoxicity toward HT-29: no cytotoxicity
S. aureus
  MIC: inactive
[2]; 0 h
  plasma concentration: 0
[2]; 0.5 h, 25 mg/kg
  plasma concentration: 10400 and 11300 and 10800
[2]; 1 h, 25 mg/kg
  plasma concentration: 15700 and 11100 and 13300
[2]; 3 h, 25 mg/kg
  plasma concentration: 12000 and 11100 and 12600
[2]; 5 h, 25 mg/kg
  plasma concentration: 14500 and 12000 and 8860
[2]; 7 h, 25 mg/kg
  plasma concentration: 9480 and 6360 and 8380
E. coli; E. coli BW
  MIC: inactive
E. coli; E. coli C0244
  MIC: inactive
M. bovis 0AF2122
  MIC: 0.0313 µM (≈ 0.0131 µg/mL)
WT H37Rv; 10 μM, biotin-free medium, after about three doublings
  rate of CFU decline: one log10 CFU per week
WT H37Rv; day 0
  OD580 of C48 kill kinetics: 0.001
WT H37Rv; day 2
  OD580 of C48 kill kinetics: 0.004
WT H37Rv; day 4
  OD580 of C48 kill kinetics: 0.008
WT H37Rv; day 8
  OD580 of C48 kill kinetics: 0.01
WT H37Rv; day 11
  OD580 of C48 kill kinetics: 0.016
WT H37Rv; day 14
  OD580 of C48 kill kinetics: 0.012
WT H37Rv; day 16
  OD580 of C48 kill kinetics: 0.012
WT H37Rv; day 18
  OD580 of C48 kill kinetics: 0.012
WT H37Rv; day 21
  OD580 of C48 kill kinetics: 0.01
WT H37Rv; day 23
  OD580 of C48 kill kinetics: 0.01
WT H37Rv; day 25
  OD580 of C48 kill kinetics: 0.01
WT H37Rv; day 28
  OD580 of C48 kill kinetics: 0.008
WT H37Rv; day 32
  OD580 of C48 kill kinetics: 0.008
WT H37Rv; day 35
  OD580 of C48 kill kinetics: 0.008
WT H37Rv; day 39
  OD580 of C48 kill kinetics: 0.008
WT H37Rv; day 42
  OD580 of C48 kill kinetics: 0.008
WT H37Rv; day 46
  OD580 of C48 kill kinetics: 0.008
WT H37Rv; day 49
  OD580 of C48 kill kinetics: 0.008
WT H37Rv; day 53
  OD580 of C48 kill kinetics: 0.008
WT H37Rv; day 56
  OD580 of C48 kill kinetics: 0.008
WT H37Rv; day 60
  OD580 of C48 kill kinetics: 0.008
WT H37Rv; day 63
  OD580 of C48 kill kinetics: 0.008
WT H37Rv; day 67
  OD580 of C48 kill kinetics: 0.008
M. africanum
  MIC: 0.012 µM (≈ 0.00502 µg/mL)
HepG2; HepG2 and HT-29 versus Mtb
  therapeutic index (IC50/MIC50): greater than 10,000
HepG2; 3.13 μM, 48 h
  Growth compared to DMSO control (%): 106.559% and 101.297% and 106.056%
HepG2; 6.25 μM, 48 h
  Growth compared to DMSO control (%): 105.369% and 100.246%
HepG2; 12.5 μM, 48 h
  Growth compared to DMSO control (%): 104.304% and 99.8833%
HepG2; 25 μM, 48 h
  Growth compared to DMSO control (%): 105.369% and 101.144%
HepG2; 50 μM, 48 h
  Growth compared to DMSO control (%): 106.056% and 100.625% and 106.559%
HepG2; 100 μM, 48 h
  Growth compared to DMSO control (%): 110.419% and 100.81% and 101.702%
HepG2; concentrations up to 100 μM, 48 h
  cytotoxicity toward HepG2: no cytotoxicity
BioA [3]; 50 nM BioA
  IC50: 34 nM
BioA [3]; C48 2.60123 nM, 50 nM BioA
  activity: 100% and 105%
  activity at 0.00260123 µM: 99.5%
BioA [3]; C48 3.90184 nM, 50 nM BioA
  activity: 98% and 101%
  activity at 0.00390184 µM: 95.4%
BioA [3]; C48 5.85277 nM, 50 nM BioA
  activity: 98.6% and 97%
  activity at 0.00585277 µM: 96.2%
BioA [3]; C48 8.77915 nM, 50 nM BioA
  activity: 94.6% and 97.2%
  activity at 0.00877915 µM: 94%
BioA [3]; C48 13.1687 nM, 50 nM BioA
  activity: 90.9% and 91.4%
  activity at 0.0131687 µM: 90.4%
BioA [3]; C48 19.7531 nM, 50 nM BioA
  activity: 81.3% and 85.6%
  activity at 0.0197531 µM: 80.3%
BioA [3]; C48 29.6296 nM, 50 nM BioA
  activity: 64.4% and 66.5%
  activity at 0.0296296 µM: 63.7%
BioA [3]; C48 44.4444 nM, 50 nM BioA
  activity: 19.1% and 25.7%
  activity at 0.0444444 µM: 20.9%
BioA [3]; C48 66.6667 nM, 50 nM BioA
  activity: 0.926% and 1.11%
  activity at 0.0666667 µM: 1.35%
BioA [3]; read-out: Vi/Vo %
  remaining activity at 0.00114183 µM: 103%
  remaining activity at 0.00171274 µM: 106%
  remaining activity at 0.00256912 µM: 106%
  remaining activity at 0.00385367 µM: 97%
  remaining activity at 0.00578051 µM: 96.5%
  remaining activity at 0.00867076 µM: 89.3%
  remaining activity at 0.0130061 µM: 88.9%
  remaining activity at 0.0195092 µM: 78.8%
  remaining activity at 0.0292638 µM: 60.8%
  remaining activity at 0.0438957 µM: 42%
  remaining activity at 0.0658436 µM: 0%
  remaining activity at 0.0987654 µM: 0%
  remaining activity at 0.148148 µM: 0%
  remaining activity at 0.222222 µM: 0%
  remaining activity at 0.333333 µM: 0%
[4]
  activity against the entire ESKAPE panel: inactive
